≈ marks a conversion by molar mass, not a printed value. Where “and” joins values, the source holds several entries; their conditions need not be identical. Identical values can stand only once. Ends that are not written are not given here. Peptide text beside a SMILES is read from it.
Key:
Gram-negative bacteria = assay: MIC, summary over Gram-negative strains; assay type: cell-based; conditions: E. coli and Salmonella strains of Table 2
Experimental: (§1) The minimal inhibitory concentration (MIC) was evaluated by a microtiter plate assay ([Wiegand et al., 2008]). Serial 2-fold dilutions of test peptides were placed into a 96-well plate containing identical bacterial inoculum and incubated at 37°C for 16∼20 h. Vancomycin was used as antibiotic control. The MIC value was defined as the lowest peptide concentration where no visible growth occurred. All tests were made in triplicate.

S. aureus CVCC 546 gDNA = assay: Gel retardation assay of gDNA binding; parameters: species or system Staphylococcus aureus; conditions: 10 min incubation, 1% agarose gel, ratios 0-5 (w/w)
Experimental: A gel retardation assay ([Zhao et al., 2019]) was utilized to analyze the binding of peptides to genomic DNA (gDNA) extracted from S. aureus CVCC 546 with TIANamp Bacteria DNA Kit (TIANGEN Biotech Co., Ltd., Beijing). The peptides were incubated for 10 min with gDNA at different ratios of 0–5.0 (w/w) and then loaded on 1% agarose gel for electrophoresis analysis.

S. aureus CVCC 546 [1] = assay: Post-antibiotic effect (PAE); assay type: cell-based, Staphylococcus aureus; conditions: 2 × MIC, 2 h exposure, mean ± SD, n = 3
Experimental: The PAE was determined by exposing S. aureus cells to antimicrobial agent at 1×, 2×, or 4 × MIC for 2 h. After drug removal by dilution, the bacterial culture was incubated at 37°C and 250 rpm. An aliquot of samples (50 μL) were taken for CFU counts at different time intervals until bacterial cultures became turbid. Bacteria treated with DLP4 or vancomycin and left without treatment were used as the positive and blank controls, respectively. The PAE was calculated using the following formula: PAE = T − C, where T is the time for the CFU counts to increase by 10-fold above the count observed immediately after drug removal, and C is the corresponding time for the untreated control ([Oh et al., 2019]).

S. aureus CVCC 546 [2] = assay: Mouse thigh infection model, CFU in thigh muscle; assay type: in vivo, mouse (female CD-1); conditions: 10 mg/kg single i.p. dose 2 h post-infection, read 24 h post-infection, n = 6
Experimental: (§2) Mouse experiments were carried out at Gene Engineering Laboratory, Feed Research Institute of Chinese Academy of Agricultural Sciences (CAAS) and complied with institutional animal care and use policies and procedures (AEC-CAAS-20090609). All animal studies were performed with female CD-1 mice, 6∼7 weeks old.
(§3) S. aureus CVCC 546 in the exponential phase were resuspended in MHB and adjusted to 1 × 10^8 CFU/mL, a 0.1-mL inoculum was injected into the right thighs of mice. At 2 h post-infection, mice (n = 6) were administered intraperitoneally (i.p.) with peptides at 2.5, 5, or 10 mg/kg. Mice raised without any treatment, or treated with PBS, 10 mg/kg DLP4, or vancomycin were used as the blank and negative and positive controls, respectively. At 24 h post-infection, peripheral blood was collected and serum was separated for cytokine levels analysis by using enzyme-linked immunosorbent assay (ELISA) kit (R&D systems, United States). Mice were euthanized, the right thighs were aseptically removed and processed for colonies counting ([Ling et al., 2015]).

[3] = system: mouse macrophage RAW 264.7; assay: Cytotoxicity, MTT assay; assay type: cell-based; conditions: 256 μg/mL, RAW 264.7, MTT, n = 4
Experimental: The cytotoxicity of peptides toward mouse macrophage RAW 264.7 was evaluated by the MTT assay as described previously ([Wang X. et al., 2018]).

mouse erythrocytes = assay: Hemolytic activity; assay type: cell-based; conditions: 128 μg/mL, 8% (v/v) mouse erythrocytes in PBS, 1 h, 37°C, absorbance 576 nm, n = 3
Experimental: Hemolytic activity of peptides was evaluated with fresh mouse erythrocytes. Briefly, fresh mouse erythrocytes were collected, washed, and resuspended to a concentration of 8% (v/v) in PBS. Then, an aliquot of erythrocyte solution was added to 96-well plates containing an equal volume of peptide solution (1∼256 μg/mL) and was incubated for 1 h at 37°C. The erythrocyte suspension treated with 0.1% Triton X-100 and left untreated was employed as positive and negative controls, respectively. After centrifugation at 2000 rpm for 5 min, the supernatant was measured using a microplate reader at 576 nm. The percent hemolysis was calculated using the following formula: Percenthemolysis = [(A − A0)/(A100 − A0)] × 100%, where A, A100, and A0 represent the absorbance of the peptide sample and positive and negative controls, respectively.

[4] = system: Streptococcus pneumoniae CVCC 2350; assay: MIC, microtiter plate assay; assay type: cell-based; conditions: 16∼20 h, triplicate
Experimental: as §1

[5] = system: Escherichia coli ATCC 25922; assay: MIC, microtiter plate assay; assay type: cell-based; conditions: 16∼20 h, triplicate
Experimental: as §1

[6] = system: Salmonella pullorum CVCC 533; assay: MIC, microtiter plate assay; assay type: cell-based; conditions: 37°C, 16∼20 h, triplicate
Experimental: as §1

S. aureus CVCC 546 [7] = assay: Time-kill assay; assay type: cell-based, Staphylococcus aureus; conditions: 2 × MIC, MHB, 10^5 CFU/mL, 37°C, n = 3
Text: Time-kill assay was used to assess the killing rates of S. aureus cells by AMPs in vitro, done by measuring the number of viable bacteria left at various times after exposure to the peptides. […] At different time intervals, a certain sample was taken, serially diluted, and plated on MHA for colonies counting. Cells treated with 2 × MIC DLP4 or vancomycin and left without treatment were used as the positive and blank controls, respectively ([Flamm et al., 2019]).

S. aureus ATCC 43300 = assay type: cell-based, Staphylococcus aureus; conditions: microtiter, serial 2-fold dilutions, 37°C, 16∼20 h, triplicate; – = no activity
Procedure, shortened: (§4)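 2-fold peptide dilution series, identical inoculum, 37°C, 16∼20 h. MIC = lowest conc. without visible growth. Vancomycin control; triplicate.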

S. aureus CVCC 546 [8] = assay: Potassium ion (K+) leakage; assay type: cell-based, Staphylococcus aureus; conditions: 1 × MIC, treated for 150 min, 0.9% saline, 10^8 CFU/mL, ICP, n = 3
Experimental: To further investigate the effects of peptides on membrane integrity, K^+ leakage determination was carried out as previously described ([Miao et al., 2016]). Briefly, S. aureus CVCC 546 cells were centrifuged, washed, and resuspended in 0.9% sterile saline. The cell suspension (10^8 CFU/mL) was treated with peptides at 1 × MIC. Cells untreated and treated with DLP4 or nisin were used as blank and positive controls. At time intervals of 30, 60, 90, 120, and 150 min, the suspensions were centrifuged at 12000 rpm for 5 min. The supernatants were then subjected to measurement by Agilent inductively coupled plasma optical emission (ICP-OES).

[9] = system: S. epidermidis ATCC 12228; assay: MIC, microtiter plate assay; assay type: cell-based, Staphylococcus epidermidis; conditions: 16∼20 h, triplicate
Experimental: as §1

S. suis CVCC 3928 = assay: MIC, microtiter plate assay; assay type: cell-based, Streptococcus suis; conditions: 16∼20 h, triplicate
Experimental: as §1

S. aureus CVCC 546 [10] = assay: Membrane permeabilization, PI flow cytometry; assay type: cell-based, Staphylococcus aureus; conditions: 2 × MIC, 0.5 h, 10^8 CFU/mL, n = 3
Experimental: The effects of peptides on membrane permeabilization were measured by flow cytometry ([Zhu et al., 2018]). […] Cells untreated and treated with 2 × MIC DLP4 or vancomycin were used as blank and positive controls. The fluorescence of the dye was monitored at an excitation wavelength of 488 nm and an emission wavelength of 635 nm.

[11] = system: Staphylococcus aureus CVCC 546; assay: microbe, parasite or virus in culture; assay type: cell-based
Procedure, shortened: as §4

E. coli K88 = assay: MIC, microtiter plate assay; assay type: cell-based, Escherichia coli; conditions: 16∼20 h, triplicate
Experimental: as §1

S. enteritidis CVCC 3377 = assay: MIC, microtiter plate assay; assay type: cell-based, Salmonella enteritidis; conditions: 37°C, 16∼20 h, triplicate
Experimental: as §1

TNF-α = assay: Mouse thigh infection model, serum cytokine ELISA; assay type: in vivo, mouse (female CD-1); conditions: 10 mg/kg i.p., serum 24 h post-infection
Experimental: as §2, §3

IL-6 = assay: Mouse thigh infection model, serum cytokine ELISA; assay type: in vivo, mouse (female CD-1); conditions: 10 mg/kg i.p., serum 24 h post-infection
Experimental: as §2, §3

IL-10 = assay: Mouse thigh infection model, serum cytokine ELISA; assay type: in vivo, mouse (female CD-1); conditions: 10 mg/kg i.p., serum 24 h post-infection
Experimental: as §2, §3

[12] = Drop-diffusion assay of antibacterial activity; assay type: cell-based

CC[C@H](C)[C@@H]1NC(=O)[C@@H]2CSSC[C@@H](C(=O)N[C@@H](CCCNC(=N)N)C(=O)N[C@@H](CCCCN)C(=O)O)NC(=O)[C@H](CC(N)=O)NC(=O)[C@@H]3CSSC[C@H](NC(=O)[C@H](C)NC(=O)[C@H](C)NC(=O)[C@H](Cc4c[nH]cn4)NC(=O)CNC(=O)[C@H](C(C)C)NC(=O)[C@H](CCCCN)NC(=O)[C@H](Cc4ccccc4)NC(=O)[C@@H]4CCCN4C(=O)[C@H](CO)NC(=O)[C@H](CC(C)C)NC(=O)[C@H](CC(C)C)NC(=O)[C@H](CC(=O)O)NC(=O)[C@@H](NC(=O)[C@@H](NC(=O)[C@H](C)N)[C@@H](C)O)CSSC[C@H](NC(=O)[C@H](Cc4c[nH]c5ccccc45)NC(=O)CNC(=O)CNC(=O)[C@H](CCCNC(=N)N)NC(=O)[C@H](CCCCN)NC(=O)CNC(=O)[C@H](CCCNC(=N)N)NC(=O)[C@H](C)NC1=O)C(=O)N[C@@H](CC(=O)O)C(=O)N[C@@H](CCCCN)C(=O)N[C@@H](CCCNC(=N)N)C(=O)N[C@@H](C)C(=O)N[C@@H](C(C)C)C(=O)N3)C(=O)N[C@@H](C)C(=O)N[C@@H](C)C(=O)N[C@@H](Cc1c[nH]cn1)C(=O)N2 [DLP4] (HELM PEPTIDE1{A.T.C.D.L.L.S.P.F.K.V.G.H.A.A.C.A.A.H.C.I.A.R.G.K.R.G.G.W.C.D.K.R.A.V.C.N.C.R.K}$PEPTIDE1,PEPTIDE1,3:R3-30:R3|PEPTIDE1,PEPTIDE1,16:R3-36:R3|PEPTIDE1,PEPTIDE1,20:R3-38:R3$$$V2.0; N-terminus and C-terminus assumed)
activity against Gram-negative bacteria (Gram-negative bacteria): no activity | peptide/gDNA mass ratio at which gDNA was completely blocked (S. aureus CVCC 546 gDNA): 2.5 | peptide/gDNA mass ratio at which migration of gDNA began to be retarded (S. aureus CVCC 546 gDNA): 0.5 | PAE (S. aureus CVCC 546 [1]): 8.20 ± 0.19 h | reduction of S. aureus in infected thigh muscles (S. aureus CVCC 546 [2]): 1.7 log10 (CFU/g) | cell viability [3]: 63.8% | hemolysis (mouse erythrocytes): 0.61% | MIC ([4]; 37°C): 7.50 µM (≈ 32 µg/mL) | MIC ([5]; 37°C): >29.98 µM | MIC [6]: >29.98 µM | decrease of CFU counts within 1 h (S. aureus CVCC 546 [7]): 2.7 log10 CFU/mL | A1 (MIC against S. aureus ATCC 43300) (S. aureus ATCC 43300): 16 µg/mL | level of released K+ (S. aureus CVCC 546 [8]): 0.72 mg/L | MIC ([9]; 37°C): 14.99 µM (≈ 64 µg/mL) | MIC (S. suis CVCC 3928; 37°C): 3.75 µM (≈ 16 µg/mL) | percentage of PI-positive cells (S. aureus CVCC 546 [10]): 41.8% | MIC ([11]; Table 1, – = no activity): 16 | MIC ([11]; microtiter, 37°C, 16∼20 h, triplicate): 3.75 µM (≈ 16 µg/mL) | MIC (E. coli K88; 37°C): >29.98 µM | MIC (S. enteritidis CVCC 3377): >29.98 µM | downregulation of serum level of TNF-α (TNF-α): 1103.30 pg/mL | downregulation of serum level of IL-6 (IL-6): 710.02 pg/mL | downregulation of serum level of IL-10 (IL-10): 29.06 pg/mL

CN[C@H](CC(C)C)C(=O)N[C@H]1C(=O)N[C@@H](CC(N)=O)C(=O)N[C@H]2C(=O)N[C@H]3C(=O)N[C@H](C(=O)N[C@H](C(=O)O)c4cc(O)cc(O)c4-c4cc3ccc4O)[C@H](O)c3ccc(c(Cl)c3)Oc3cc2cc(c3O[C@@H]2O[C@H](CO)[C@@H](O)[C@H](O)[C@H]2O[C@H]2C[C@](C)(N)[C@H](O)[C@H](C)O2)Oc2ccc(cc2Cl)[C@H]1O [Vancomycin]
PAE (S. aureus CVCC 546 [1]): 1.36 ± 0.20 h | reduction of S. aureus in infected thigh muscles (S. aureus CVCC 546 [2]): 0.77 log10 (CFU/g) | cell viability [3]: 85.8% | hemolysis (mouse erythrocytes): 0.54% | MIC ([4]; Streptococcus pneumoniae, CVCC2350, 37°C): 0.34 µM and 0.5 µg/mL | MIC ([5]; Escherichia coli, ATCC25922, 37°C): 86.2 µM and 128 µg/mL | MIC ([6]; Salmonella enterica, PULLORUM): 86.2 µM and 128 µg/mL | decrease of CFU counts within 1 h (S. aureus CVCC 546 [7]): 0.22 log10 CFU/mL | MIC ([9]; Staphylococcus epidermidis, ATCC12228, 37°C): 0.67 µM and 1 µg/mL | MIC (S. suis CVCC 3928; Streptococcus suis, CVCC3928, 37°C): 0.17 µM and 0.25 µg/mL | percentage of PI-positive cells (S. aureus CVCC 546 [10]): 5.1% | MIC ([11]; Staphylococcus aureus, CVCC546, 20 h): 0.67 µM and 1 µg/mL | MIC (E. coli K88; Escherichia coli, K88, 37°C): 43.1 µM and 64 µg/mL | MIC (S. enteritidis CVCC 3377; Salmonella enterica, ENTERITIDIS): 86.2 µM and 128 µg/mL | downregulation of serum level of TNF-α (TNF-α): 1052.98 pg/mL | downregulation of serum level of IL-6 (IL-6): 497.48 pg/mL | downregulation of serum level of IL-10 (IL-10): 15.82 pg/mL

ATCDLLSPFKVGHAACAAHCIARGKRSGWCDKRAVCNCRK (also: bicyclic or more (positions not given here)) [ID7, DLP4 derivative changed at a conservative site]
antibacterial activity [12]: no antibacterial activity

Reference: PMC7291858, “An Enhanced Variant Designed From DLP4 Cationic Peptide Against Staphylococcus aureus CVCC 546” (Frontiers in Microbiology, 2020)
